Test results from PubChem BioAssay (NCI).
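Protocol summary: plate cells (96-well), add compound at 5 concentrations, incubate 48 h, interpolate endpoints linearly. Here, GI50 denotes the concentration required for 50% inhibition of growth. Definition used: TGI = concentration required for complete inhibition of growth.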

What was measured:
Test in all cases: inhibition of tumour cell growth, NCI panel, 48 h
[1] = tested on: MOLT-4 leukemia
[2] = tested on: NCI-H522 lung
[3] = tested on: RXF 393 renal
[4] = tested on: MDA-MB-435
[5] = tested on: 786-0 renal
[6] = tested on: A498 renal
[7] = tested on: SK-MEL-2 melanoma
[8] = tested on: K-562 leukemia
[9] = tested on: UACC-62 melanoma
[10] = tested on: HS 578T breast

| Compound | GI50 [1] [µM] | TGI [1] [µM] | GI50 [2] [µM] | TGI [2] [µM] | GI50 [3] [µM] | TGI [3] [µM] | GI50 [4] [µM] | TGI [4] [µM] | GI50 [5] [µM] | TGI [5] [µM] | GI50 [6] [µM] | TGI [6] [µM] | GI50 [7] [µM] | TGI [7] [µM] | GI50 [8] [µM] | TGI [8] [µM] | GI50 [9] [µM] | TGI [9] [µM] | GI50 [10] [µM] | TGI [10] [µM] |
| --- | --- | --- | --- | --- | --- | --- | --- | --- | --- | --- | --- | --- | --- | --- | --- | --- | --- | --- | --- | --- |
| CCc1c(Oc2ccc(C(C)=O)cc2)c2ccccc2[nH]c1=O | 28 | > 100 | 14.1 | > 68.3 | 20.1 | 45.7 | 16.5 | > 100 | 21.7 | > 72.1 | 17.2 | 32 | 59.5 | > 100 | 18.8 | > 76.9 | 3.74 | 16.5 | 4.3 | 43.6 |
| N#Cc1ccc(C#Cc2ccccc2C#CCCCCO)cc1 | 17.8 | 37.7 | 16.1 | 31.1 | 7.05 | 24.4 | 18.9 | 35.6 | 4.39 | 18.1 | 13.8 | 27.7 | 17.1 | 36.4 | 21.7 | 46.1 | 15 | 28.4 | 25.7 | 64.2 |
| COc1ccc(C2=NN(C(=O)c3cc(OC)c(OC)c(OC)c3)C(c3ccc(C#N)cc3)C2)cc1OC (stereo not given) | 4.27 | > 100 | 0.222 | 1.24 | 0.541 | 4.69 | 0.334 | 1.24 | 2.14 | > 48.8 | 0.374 | 4.34 | 1.58 | > 20.3 | 0.889 | > 100 | 0.737 | > 53.1 | 1.53 | > 26 |
| COc1cc(OC)cc(-c2ccc(-c3ccc(C(=N)N)o3)o2)c1 | 2.44 | 6.7 | 2.3 | 7.4 | 1.93 | 5.24 | 1.52 | 3.12 | 4.15 | 15.6 | 2.89 | 15.3 | 2.44 | 5.35 | 1.98 | 4.47 | 1.96 | 3.98 | 8.12 | 27.3 |
| CCOC(=O)CCc1cc(=O)oc2cc(O)cc(O)c12 | – | > 100 | – | > 100 | – | > 100 | – | > 100 | – | > 100 | – | > 100 | – | > 100 | – | > 100 | – | > 100 | – | > 100 |
| O=C(Nc1ccc(N2CCNCC2)cc1)c1[nH]ncc1Nc1cc(Oc2ccccc2)ncn1 | 2.05 | 5.28 | 2.14 | 8.19 | 1.75 | 3.33 | 1.68 | 4.66 | 1.84 | 3.33 | 1.96 | 4.82 | 3.82 | 15.3 | 2.22 | 10.9 | 2.15 | 4.96 | 3.06 | 14.8 |
| CC1=C(C(=O)Nc2ccc3[nH]ncc3c2)C(c2ccc3ccccc3c2)CC(=O)N1 (stereo not given) | > 25 | > 25 | 13.8 | > 25 | 4.11 | > 23.8 | > 25 | > 25 | 15.1 | > 25 | 4.22 | 22 | > 25 | > 25 | > 25 | > 25 | 14.5 | > 25 | 0.873 | > 25 |
| C[C@]12CC[C@H](O)CC1=CC[C@@H]1[C@@H]2CC[C@]2(C)C(c3cccnc3)=CC[C@@H]12 | > 38.5 | > 100 | 10.1 | > 100 | 3.32 | 19 | 12.2 | > 100 | 5.18 | > 100 | > 27.8 | > 100 | 34.5 | > 100 | 3.99 | > 100 | 37.4 | > 100 | 7.13 | > 100 |
| O=NN(Cc1ccc(Cl)cc1)C(C(=O)O)c1ccccc1 (stereo not given) | – | > 100 | – | > 100 | – | > 100 | – | > 100 | – | > 100 | – | > 100 | – | > 100 | – | > 100 | – | > 100 | – | > 100 |
| CC1=C(CCCNS(C)(=O)=O)C2=C(C)C3(CC3)[C@@](C)(O)C(=O)C2=C1 | 37.2 | > 100 | 2.09 | 7.7 | 0.199 | 0.419 | 1.99 | 5.41 | 0.816 | 6.32 | 1.05 | 2.77 | 1.67 | 4.13 | 61.8 | > 100 | 1.47 | 3.45 | 2.73 | 11.1 |
| O=c1oc2ccc(F)cc2c(=O)n1-c1ccc(F)cc1F | 3.46 | > 100 | 2.61 | 12.3 | 2.52 | 6.99 | 3.21 | 14.6 | 3.13 | 11.4 | 1.62 | 3.91 | 1.98 | 5.04 | 3.11 | > 100 | 2.02 | 7.52 | 2.59 | 8.51 |
| CNC(=O)OCc1c(COC(=O)NC)c(-c2ccc(Cl)c(Cl)c2)n2c1SCC2 | – | 47.3 | – | 21.5 | – | 13.8 | – | 33.3 | – | > 46.8 | – | 2.07 | – | 26.7 | – | 52 | – | 8.94 | – | 51 |
| CC1OC(n2cc(F)c(=O)[nH]c2=O)CCC1O (stereo not given) | – | > 100 | – | > 100 | – | > 100 | – | > 100 | – | > 100 | – | > 100 | – | > 100 | – | > 100 | – | > 100 | – | > 100 |
| Cc1cc(N(CCOS(C)(=O)=O)CCOS(C)(=O)=O)ccc1C=Nc1ccc(-c2nc(Cc3ccccc3)sc2C)cc1 | – | 22.4 | – | 0.648 | – | 4.92 | – | 26.6 | – | 15.1 | – | 6.39 | – | 34.9 | – | 65.5 | – | 16.7 | – | 34.6 |
| CC1CCC2(C(=O)O)CCC3(C)C(=CCC4C5(C)CC(O)C(O)C(C)(CO)C5C(O)CC43C)C2C1C (stereo not given) | – | > 100 | – | 33.9 | – | > 64.1 | – | > 100 | – | 20 | – | 48 | – | 36.6 | – | > 100 | – | 47.5 | – | 41.5 |
| Cc1cc(I)cc(CNCCCN2CCSCC2)c1O | 15.1 | 33.9 | 18.4 | 36.5 | 11.1 | 24.1 | 13.6 | 26.6 | 13 | 25.8 | 13.7 | 28.5 | 18.6 | 35.4 | 8.4 | 26.1 | 12.7 | 30.9 | 12.1 | 26.6 |
| O=C1/C(=C/c2ccc(Cl)cc2Cl)N=C(c2ccccc2)N1Cc1ccco1 | 25.8 | > 100 | 18.9 | 48.4 | 22.6 | 51.8 | 43.6 | > 100 | 19.8 | 41.2 | 22.3 | 61 | 15.8 | 48.5 | 41.1 | > 100 | 18.1 | 41.6 | 22.7 | 65 |
| O=C1CNCCCN2CCN(CCCNCC(=O)Nc3ccc(cc3)S(=O)(=O)c3ccc(cc3)NC(=O)CNCCCN3CCN(CCCNCC(=O)Nc4ccc(cc4)S(=O)(=O)c4ccc(cc4)N1)CC3)CC2 | – | > 51 | – | 53.8 | – | > 70.2 | – | > 58.8 | – | 38.9 | – | 47.1 | – | 90.1 | – | > 58.5 | – | > 67.5 | – | > 69.4 |
| COc1ccc2c(c1)c(-c1nc(-c3cn(C)c4ncccc34)cs1)cn2CCCN1CCCCC1 | 1.71 | 3.36 | 1.68 | 3.37 | 1.68 | 3.29 | 1.63 | 3.03 | 1.59 | 2.95 | 2.4 | 6.22 | 2.07 | 4.46 | 1.64 | 3.4 | 1.76 | 3.2 | 2.24 | 5.8 |
| CCCCC/C(C=C(C#N)C#N)=C/c1ccccc1 | 2.37 | 6.98 | 4.5 | 19.7 | 5.82 | 22.3 | 1.77 | 4.11 | 7.45 | 21.6 | 9.72 | 23.2 | 17.4 | 41.3 | 3.8 | 35.3 | 2.84 | 11.9 | 1.87 | 4.76 |
| COC(=O)C(/C(=N/NC(N)=O)C(=O)Nc1ccc(C)cc1)c1nc2ccc([N+](=O)[O-])cc2[nH]c1=O (stereo not given) | – | > 100 | – | > 100 | – | > 100 | – | > 100 | – | > 100 | – | > 100 | – | > 100 | – | > 100 | – | > 100 | – | > 100 |
| COC(=O)c1cc2c3ccccc3[nH]c2c2ncccc12 | > 100 | > 100 | 86 | > 100 | > 100 | > 100 | > 100 | > 100 | 61.2 | > 100 | > 100 | > 100 | > 100 | > 100 | 75.3 | > 100 | > 100 | > 100 | 15.4 | 87 |
| Cn1c(N2NC(=O)C(N=Nc3ccc(S(N)(=O)=O)cc3)C2=O)nc(-c2ccco2)c(C#N)c1=O (stereo not given) | 9.27 | 27.8 | 5.42 | 26.5 | 9.65 | 26.1 | 32.3 | > 50 | > 50 | > 50 | > 50 | > 50 | > 50 | > 50 | 5.69 | 31.2 | 39.4 | > 50 | 9.85 | 38.6 |
| CCCCC(=O)OCC1OC(n2cnc3c(=S)nc[nH]c32)C(OC(=O)CCCC)C1OC(=O)CCCC (stereo not given) | 5.74 | > 100 | 0.498 | 60.2 | > 71.4 | > 100 | 2.21 | > 100 | 2.24 | > 100 | 9.54 | > 96.1 | 1.61 | > 78.7 | 2.03 | > 100 | 0.899 | > 100 | > 35.4 | > 100 |
| O=C1c2cccc(NCCN=Cc3cc(O)ccc3O)c2C(=O)c2c(NCCN=Cc3cc(O)ccc3O)cccc21 | 0.319 | 1.46 | 1.33 | 3.24 | 1.43 | 2.96 | 1.53 | 3.08 | 1.88 | 4.69 | 1.41 | 3.1 | 2.02 | 3.91 | 1.45 | 3.9 | 1.68 | 3.57 | 1.03 | 3.78 |
| Cc1nn(CN2CCN(C)CC2)c(=S)n1/N=C/c1cccc2ccccc12 | 19.1 | 41.5 | 19 | 39.8 | 18.2 | 34.1 | 18.6 | 43 | 21.3 | 44.6 | 16.7 | 34.7 | 20.1 | 39 | 15.2 | 37.5 | 17.5 | 33.9 | 26.8 | 74.8 |
